Laboratory results from patent publication US20120029040A1, “ANIMAL ECTOPARASITE-CONTROLLING AGENT” (priority 2010, published 2012).

Tests used:
[1] = tested on: ticks (Haemaphysalis longicornis); assay: Pesticidal activity on ticks in filter paper test; conditions: 48 h, 100 mg/m^2, non-blood-fed young ticks, 2 days
Protocol: Pesticidal Activity on Ticks (Haemaphysalis longicornis) in Filter Paper Test
Each (5 mg) of the present hydrazide compounds (1) and (2) was dissolved in acetone (10 mL), and this acetone solution (1 mL) was uniformly applied onto one side of a filter paper (TOYO No. 2; 5×10 cm; the surface area of the filter paper was 50 cm^2, and thus the amount of the present hydrazide compound applied was 100 mg/m^2). After drying, said filter paper was folded, and the both sides of the paper were clipped to form a bag. Into this bag, test ticks (Haemaphysalis longicornis, non-blood-fed young ticks, 10 ticks/group) were added, and the opening was clipped to seal the bag. Two (2) days later, the number of dead ticks was examined and the mortality was calculated by the following formula:
Mortality (%)=100×(number of dead ticks/number of ticks tested)

[2] = tested on: ticks (Haemaphysalis longicornis); assay: Dropping application against mouse-infested ticks; type: in vivo; conditions: 0.1% w/v solution 200 μL dropwise to whole body surface, 2 days after application
Protocol: Dropping Application Against Mouse-Infested Ticks (Haemaphysalis longicornis)
The previous day before dropping application, 30 test ticks (Haemaphysalis longicornis, young ticks) were deposited on a mouse. Before the dropping application, uninfested ticks were removed.
The present hydrazide compound (1) (5 mg) was dissolved in a mixture (5 mL) of propylene carbonate and diethylene glycol monoethyl ether in equal amounts to prepare a 0.1% w/v solution. Said solution (200 μL) was applied dropwise to the whole body surface of a mouse with a pipette. To a control group, the mixture (200 μL) alone was applied. Each application was repeated 3 times per group.
Two (2) days after the application, the number of dead ticks was examined and the mortality was calculated by the following formula:
Mortality (%)=100×(number of dead ticks/infested ticks before dropping application)

[3] = tested on: ticks (Haemaphysalis longicornis); assay: Oral administration against mouse-infested ticks; type: in vivo; conditions: 20 mg in 10 mL test solution at 10 mL per 1 kg body weight, 2 days after administration
Protocol: Oral Administration Against Mouse-Infested Ticks (Haemaphysalis longicornis)
The previous day before oral administration, 30 test ticks (Haemaphysalis longicornis, young ticks) were deposited on a mouse. Before the oral administration, uninfested ticks were removed.
(§1) The present hydrazide compound (1) (20 mg) was dissolved in dimethylformamide (680 mg), and thereto a corn oil was added to prepare a test solution (10 mL). Said test solution was orally administered to the mouse at the rate of 10 mL per 1 kg of the body weight of the mouse with a gastric sonde. To a control group, a 7% dimethylformamide/corn oil solution alone was orally administered. Each administration was repeated 3 times per group.
Two (2) days after the administration, the number of dead ticks was examined and the mortality was calculated by the following formula:
Mortality (%)=100×(number of dead ticks/infested ticks before oral administration)

[4] = tested on: cat fleas (Ctenocephalides felis); assay: Oral administration against mouse-infested cat fleas; type: in vivo; conditions: 20 mg in 10 mL test solution at 10 mL per 1 kg body weight, fleas deposited after administration, 2 days later
Protocol: Oral Administration Against Mouse-Infested Cat Fleas (Ctenocephalides Felis)
as §1, with “at a” for “at the”
After the oral administration, 20 cat fleas were deposited on each mouse. Two (2) days later, the number of cat fleas was examined and the mortality was calculated by the following formula:
Mortality (%)=100×(number of dead cat fleas/number of cat fleas tested)

[5] = tested on: ticks (Haemaphysalis longicornis); assay: Dropping application against dog-infested ticks; type: in vivo
Protocol: Dropping Application Against Dog-Infested Ticks (Haemaphysalis longicornis)
(§2) Each (0.375 or 1.5 g) of the present hydrazide compound (1) and Comparative compound (52) was dissolved in diethylene glycol monoethyl ether (6.0 g) to prepare a test solution. Said test solution was directly dropped on the skin of the neck and back of the dog while pushing aside fur thereon at a rate of 0.1 ml per 1 kg of the dog's body weight (dose amount: 5 or 20 mg/kg). This is referred to as a test group. On the other hand, diethylene glycol monoethyl ether alone was applied dropwise to a placebo group.
Twenty eight (28) days later, 100 test ticks were deposited on each dog. Two (2) days after the deposit, the number of living ticks, which were infesting the dogs, was examined. When the examination was completed, all infested ticks were removed from the dogs. The infestation rate and control rate were calculated by the following formulae: […]
Method of calculating infestation rate and control rate at 30 days after the application:
Infestation rate (%) at X days after application=(number of living ticks at X days/number of ticks deposited)×100
(§3) Control rate (%) at X days after application=(infestation rate of placebo group at X days−infestation rate of test group at X days)/infestation rate of placebo group at X days×100
(§4) In addition, if an infestation rate of a test group is higher than a placebo group, then the control rate is deemed to be 0%.

[6] = tested on: ticks (Haemaphysalis longicornis); assay: Oral administration against dog-infested ticks; type: in vivo; conditions: dog (beagle), oral gelatin capsules
Protocol: Oral Administration Against Dog-Infested Ticks (Haemaphysalis longicornis)
The previous day before oral administration, 100 test ticks (Haemaphysalis longicornis, young ticks) were deposited on a dog (beagle). Before the oral administration, infested ticks were counted.
Each of the present hydrazide compound (1) and Comparative compound (52) was filled into gelatin capsules, and forcibly and orally administered to a dog in a dose amount of 5 mg or 20 mg per 1 kg of the dog's body weight. This is referred to as a test group. On the other hand, gelatin capsules alone was orally administered to a placebo group.
Two (2) days after the administration, the number of living ticks, which were infesting the dogs, was examined.
When the examination was completed, all infested ticks were removed from the dogs. The infestation rate and control rate were calculated by the following formulae: […]
Method of calculating infestation rate and control rate at the initial stage (2 days) after the administration:
Infestation rate (%) at X days after administration=(number of living ticks at X days/number of living ticks before administration)×100
Control rate (%) at X days after administration (infestation rate of test group before administration−infestation rate of test group at X days)/infestation rate of test group before administration×100
as §4

[7] = tested on: cat fleas (Ctenocephalides felis); assay: Dropping application against cat-infested cat fleas; type: in vivo
Protocol: Dropping Application Against Cat-Infested Cat Fleas (Ctenocephalides felis)
The previous day before dropping application, 50 test fleas (cat flea adults) were deposited on a cat. Before the dropping application, infested fleas were counted.
as §2, with “Each (0.75” for “Each (0.375”, “the cat” for “the dog”, “thereon on” for “thereon”, “the cat's” for “the dog's”, “amount: 10” for “amount: 5”
Two (2) days after the application, the number of living fleas, which were infesting the cats, was examined. When the examination was completed, all infested fleas were removed from the cats.
(§5) Twenty eight (28) days later, 50 test fleas were re-deposited on each cat. Two (2) days after the re-deposit, the number of living fleas, which were infesting the cats, was examined. When the examination was completed, all infested fleas were removed from the cats. The infestation rate and control rate were calculated by the following formulae: […]
(i) Method of calculating infestation rate and control rate at the initial stage (2 days) after the application:
Infestation rate (%) at X days after application=(number of living fleas at X days/number of living fleas before application)×100
Control rate (%) at X days after application=(infestation rate of test group before application−infestation rate of test group at X days)/infestation rate of test group before application×100
(ii) Method of calculating infestation rate and control rate at 30 days after the application:
Infestation rate (%) at X days after application=(number of living fleas at X days/number of fleas deposited)×100
as §3, §4

[8] = tested on: cat fleas (Ctenocephalides felis); assay: Oral administration against cat-infested cat fleas; type: in vivo; conditions: oral with cat food, dose 20 mg/kg
Protocol: Oral Administration Against Cat-Infested Cat Fleas (Ctenocephalides felis)
Each of the present hydrazide compound (1) and Comparative compound (52) was mixed with a cat food, and orally administered to a cat in a dose amount of 20 mg per 1 kg of the cat's body weight. This is referred to as a test group. On the other hand, the cat food alone was fed to a placebo group.
as §5, with “Forty two (42)” for “Twenty eight (28)”, “deposited” for “re-deposited”, “deposit,” for “re-deposit,”
Method of calculating infestation rate and control rate at 44 days after the administration:
Infestation rate (%) at X days after administration=(number of living fleas at X days/number of fleas deposited)×100
Control rate (%) at X days after administration=(infestation rate of placebo group at X days−infestation rate of test group at X days)/infestation rate of placebo group at X days×100
as §4

Row | Compound | mortality at 100 mg/m2 [1] | Mortality [2] | Mortality [3] | Mortality [4] | Tick control rates (%) at 30 days after the application ([5]; dose 5 mg/kg) | Tick control rates (%) at 30 days after the application ([5]; dose 20 mg/kg) | Tick control rates (%) at 2 days after the application ([6]; dose 5 mg/kg) | Tick control rates (%) at 2 days after the application ([6]; dose 20 mg/kg) | Flea control rates (%) at 2 days after the application ([7]; dose 10 mg/kg) | Flea control rates (%) at 30 days after the application ([7]; dose 10 mg/kg) | Flea control rates (%) at 2 days after the application ([7]; dose 20 mg/kg) | Flea control rates (%) at 30 days after the application ([7]; dose 20 mg/kg) | Flea control rates (%) at 44 days after the administration [8]
1 | CN(NC(=O)C1CC1)c1cc(C2=NOC(c3cc(Cl)cc(Cl)c3)(C(F)(F)F)C2)ccc1Cl (stereo not drawn) [(2), N′-methyl-N′-{2-chloro-5-[5-(3,5-dichlorophenyl)-5-trifluoromethyl-4,5-dihydroisoxazol-3-yl]phenyl}cyclopropanecarbohydrazide] | ≥ 90% |  |  |  |  |  |  |  |  |  |  |  | 
2 | O=C(NNc1cc(C2=NOC(c3cc(Cl)cc(Cl)c3)(C(F)(F)F)C2)ccc1Cl)C1CC1 (stereo not drawn) [Compound (1), N′-{2-chloro-5-[5-(3,5-dichlorophenyl)-5-trifluoromethyl-4,5-dihydroisoxazol-3-yl]phenyl}cyclopropanecarbohydrazide] |  | ≥ 70% | ≥ 90% | ≥ 90% | 100% | 100% | 100% | 100% | 92% | 84% | 96% | 94% | 94%
3 | CC(=O)NNc1cc(C2=NOC(c3cc(Cl)cc(Cl)c3)(C(F)(F)F)C2)ccc1Cl (stereo not drawn) [Comparative compound (52), N′-{5-[5-(3,5-dichlorophenyl)-5-trifluoromethyl-4,5-dihydroisoxazol-3-yl]-2-chlorophenyl}acetohydrazide, reference compound] |  |  |  |  | 29% |  | 26% |  | 58% | 74% |  |  | 68%
